How the values were obtained:
[1] = tested on: RAW 264.7 cells; test: DCF fluorescence (H2O2 production), flow cytometry; assay type: cell-based, mouse
Description: (§2) RAW 264.7 cells were cultured in a 5% CO2 in Dulbecco's Modified Eagle Medium (DMEM) containing 10% FCS, 5000 U/ml penicillin, 500 μg/ml streptomycin, and 2 mM L-glutamine (complete medium). For exposure to NP, aliquots of 3×10^5 cells were cultured in 24-well plates in 0.5 ml of medium at 37° C. for the indicated time periods. All the NP solutions were prepared fresh from stock solutions (10 mg/ml) and the solutions were sonicated for 10 sec before addition to cell cultures.
Cells were stained with the fluorescent dyes diluted in DMEM. […] DiOC6 and Fluo-3 fluorescence were analyzed in the FL-1 channel, while PI, Rhod-2 and MitoSOX red fluorescence were analyzed in FL-2. HE fluorescence was analyzed using FL-3 channels. Monobromobimane fluorescence was excited by the UV laser tuned to 325 nm, and emission was measured at 510 nm (FL-4 channel) in the LSR flow cytometer. […]
The fold-increase in mean fluorescence intensity (MFI) of DCF was expressed as the ratio of particle-treated vs. control cells (FIG. 8A).

[2] = tested on: RAW 264.7 cells; test: Propidium iodide (PI) uptake, cellular toxicity; assay type: cell-based
Description: (§1) Cells were stained with the fluorescent dyes diluted in DMEM. The following dye combinations were added for 15-30 min at 37° C. in the dark: (i) 47.5 μg/ml propidium iodide (PI) in 200 μl DMEM (assessment of cell death); (ii) 20 nM DiOC6 (assessment of Δψm); (iii) 2 μM MitoSOX™ red (superoxide generation) or 2 μM hydroethidine (HE, superoxide production); (iv) 2.5 μM 2,7 dichlorofluorescein (DCF, mostly assesses H2O2 production); (v) 5 μM Fluo-3 (assess cytoplasmic free calcium); (vi) 4 μM Rhod-2 (mitochondrial free calcium); (vii) 40 μM monobromobimane (MBB, assess intracellular thiol levels). Flow cytometry was performed using a FACScan (Becton Dickinson, Mountain View, Calif.) equipped with a single 488 nm argon laser. DiOC6 and Fluo-3 fluorescence were analyzed in the FL-1 channel, while PI, Rhod-2 and MitoSOX red fluorescence were analyzed in FL-2. HE fluorescence was analyzed using FL-3 channels. Monobromobimane fluorescence was excited by the UV laser tuned to 325 nm, and emission was measured at 510 nm (FL-4 channel) in the LSR flow cytometer. Forward and side scatter were used to gate out cellular fragments.
Large-scale PTP opening leads to mitochondrial depolarization, O2.^− production and the release of pro-apoptotic factors. Cellular toxicity was assessed by PI staining (FIG. 18C).

[3] = tested on: HO-1; test: HO-1 expression by immunoblotting; assay type: cell-based, mouse
Description: GAPDH immunoblotting was used to ascertain equal protein loading (lower panels).
For Western blotting, 100 μg of total protein was separated by 10% SDS-PAGE and transferred to a PVDF membrane. After blocking, the membranes were incubated with primary antibodies against HO-1, phospho-JNK or JNK. The membranes were overlayed with secondary antibody before the addition of the HRP-conjugated avidin-biotin complex. The proteins were detected using ECL reagent according to the manufacturer's instructions. Protein abundance was quantified by densitometric scanning using a laser Personal Densitometer SI and Image Quant software (Amersham Biosciences).

[4] = tested on: RAW 264.7 cells; test: MitoSOX Red fluorescence (mitochondrial superoxide production), flow cytometry; assay type: cell-based, mouse
Description: as §2

[5] = tested on: TNF-α; test: TNF-α production by ELISA; assay type: cell-based, mouse
Description: Triplicate aliquots of RAW 264.7 cells were exposed to NP for 6 hr. The culture media were collected, centrifuged to remove all debris and the resultant supernatant assayed by ELISA for TNF-α and Western blotting for Jun kinase.

[6] = tested on: RAW 264.7 cells
Description: Electron microscopy was performed as previously described (Yang A H, et al., In Vitro Cell Dev Biol 23:34-46, 1987). Thin sections were cut with a Reichert-Jung ultracut and ultramicrotome (Leica, Stuttgart, Germany). Copper grids were stained with lead citrate and uranyl acetate and photographed in a Hitachi electron microscope (Hitachi Instrument Inc., Tokyo, Japan).

[7] = tested on: RAW 264.7 cells; test: DiOC6 fluorescence, mitochondrial membrane potential (Δψm); assay type: cell-based
Description: as §1
Toxic oxidative stress can perturb mitochondrial function in a number of ways, including disruption of electron flow in the inner membrane, dissipation of the mitochondrial membrane potential (Δψm), mitochondrial Ca^2+ uptake, and large-scale opening of the PTP. […]

Question: With `CC(=O)N[C@@H](CS)C(=O)O` [NAC, N-acetylcysteine] as the molecule, how does the “effect on ROS production by NH2-PS particles” value [1] read?
Answer: Its value is “effectively disrupted”.

Question: And the “effect on UFP-induced H2O2 production” value ([1]; pretreatment, 4 and 16 hrs)?
Answer: Its value is “significantly suppressed”.

Question: What about the “effect on cytotoxicity of UFP and NH2-PS” value [2] of the same molecule?
Answer: The value was “could interfere”.

Question: And the “effect on induction of HO-1 expression by NP” value [3]?
Answer: Its value is “suppressed”.

Question: And the “effect on NH2-PS ROS response” value ([4]; 8 hrs)?
Answer: The value was “failed to suppress”.

Question: And the “effect on NH2-PS ROS response” value ([4]; 16 hrs)?
Answer: The value was “did interfere”.

Question: And the “effect on UFP-induced O2.− generation” value ([4]; all time points)?
Answer: The value was “could interfere”.

Question: What about the “effect on UFP-induced TNF-α production” value ([5]; pre-treatment 2 hr, then UFP 6 hr) of the same molecule?
Answer: Its value is “capable of interfering”.

Question: How did the “HO-1 expression after prior treatment” value ([3]; without NP) turn out when `C[S+]([O-])CCCCN=C=S` (stereo not drawn) [SFN, Sulforaphane] was run?
Answer: The value was “resulted in HO-1 expression”.

Question: What about the “effect of prior treatment on TNF-α production” value ([5]; pre-treatment 4 hr, then UFP 6 hr) of the same molecule?
Answer: The value was “interference”.

Question: For Carbon Black, which “cellular uptake, subcellular localization and mitochondrial damage” value [6] is on record?
Answer: The value was “taken up in phagosomes without mitochondrial damage”.

Question: What does the source list for Polymyxin B [PMB]?
Answer: effect on LPS-induced TNF-α response ([5]; 6 hr): significant suppression; effect on UFP TNF-α response ([5]; 6 hr): small effect

Question: titanium dioxide [TiO2] was tested. Which “DiOC6 fluorescence (Δψm)” value [7] did it give?
Answer: The value was “failed to exert an influence”.

Question: And the “cellular uptake, subcellular localization and mitochondrial damage” value [6]?
Answer: The value was “taken up into loose-fitting phagosomes without noticeable mitochondrial damage”.

Source: patent publication US8512943B2, “Accessing the toxic potential of nanomaterials” (The Regents of the University of California, priority 2005, dated 2013)
